Results taken from article PMC6440464 (PeerJ, 2019).
Several values for one entry are separate records, joined by “and”; a condition that tells them apart may be missing. Equal values may be shown once. Read-outs that look alike come from different tables or passages of the source.

Experiment: Pharmacokinetics study after separate oral administration in rats (HPLC-MS of plasma)
Format: in vivo, Sprague-Dawley rats
Details: for half-life: read-out: t1/2z
Method: A total of 15 SPF Sprague-Dawley rats (SD, male, 190–210 g) were provided by Sino-British Sippr/BK Lab Animal Company Ltd. (Shanghai, China). The rats were kept in standard conditions (22–26 °C; 40–60% relative humidity; 12 h light/dark cycle). Throughout the rearing period, the animals had access to food and water ad libitum. Animal experiments were conducted in accordance with the standard ethical guidelines of the Laboratory Animal Management Committee of Jiangsu Province (SYXK (SU) 2016-0011).
Following 1 week of adaptation, the rats were fasted for about 12 h before dosing, with free access to water. […] After administration of the first dose, blood samples were taken from the retro-orbital vein at 0, 5, 15, 30, 60, 90, 120, 180, 240, 360, 480, and 1,440 min and collected in heparinized tubes. The samples were centrifuged at 3,500 rpm for 10 min at 4 °C and the plasma was stored at −80 °C until analysis.
An Agilent 1,200 series HPLC system (Agilent Technologies, Waldbronn, Germany) equipped with a quaternary pump on-line degasser, auto-sampler and column oven, and an SL G1946D quadruple mass spectrometer (Agilent Technologies, Santa Clara, CA, USA) equipped with an electrospray ionization (ESI) source, were used for separation and detection. Data were acquired and analyzed using Agilent ChemStation Software Version A.01.00 (Agilent Technologies, Santa Clara, CA, USA).
The separation was carried out with an Amethyst C18-H column (150 × 4.6 mm, 5 μm, Sepax Technologies, Newark, DE, USA) with a guard column SB-C18 (10 × 4.6 mm, 5 μm, Phenomenex Technologies, Torrance, USA) at a constant temperature of 25 °C.
The mass spectra were acquired using ESI interfaced to a single quadrupole mass spectrometer. The ionization conditions were as follows: drying gas (N2) flow rate of 11 L/min, drying gas temperature of 350 °C, nebulizing gas (N2) pressure of 35 psi, capillary voltage of 3,500 V, quad temperature of 100 °C, and fragment voltage of 110 V. A series of m/z were monitored using a timed program according to the retention times and characteristic ions for the corresponding HPLC-MS peak obtained by scanning from m/z 100–1,000 in the standard sample.
Briefly, an aliquot of plasma sample (100 μL) was spiked with 5% formic acid (10 μL) in centrifuge tube. Subsequently, hydrochloric acid (2 mol/L, 10 μL) and IS solution (960.00 ng/mL, 20 μL) were added. Then ethyl acetate/n-butyl alcohol (1:1 v/v; 1,000 μL) was used to extract the components. The samples were then homogenized by vortex mixing and centrifuged for 10 min at 14,000 rpm. After centrifugation, 800 μL of supernatant was transferred to another centrifuge tube and the sample was evaporated to dryness. The residues were dissolved in 100 μL of methanol and centrifuged for 10 min at 12,000 rpm. 50 μL of the supernatant was transferred to the vial and an aliquot of 5 μL was injected into the HPLC-MS system for analysis.
DAS 2.0 (Chinese Pharmacological Association, Shanghai, China) was used to calculate the pharmacokinetic parameters using the non-compartment model, including the area under curve (AUC), mean residence time (MRT), half-life ( t1/2z), clearance rate (CL), maximum plasma concentration (Cmax), and time (Tmax). All results are expressed as mean ± standard deviation (SD). One way analysis of variance followed by […] was used for comparison of different groups using Graph pad prism 5 software. A p-value of <0.05 was considered statistically significant.

[1] = IQ group (oral IQ 50 mg/kg), rat plasma, labelled substance = analyte, individual rats No1-No5

**Q.** With `O=c1c(O[C@@H]2O[C@H](CO)[C@@H](O)[C@H](O)[C@H]2O)c(-c2ccc(O)c(O)c2)oc2cc(O)cc(O)c12` [IQ, Isoquercitrin] as the compound, how does the Plasma concentrations (IQ group (oral IQ 50 mg/kg), 5 min, individual rats NO. 1-5) read?
**A.** Its Plasma concentrations is 0.0934 µg/mL and 0.0774 µg/mL and 0.0493 µg/mL and 0.0335 µg/mL and 0.1108 µg/mL.

**Q.** And the Plasma concentrations (IQ group (oral IQ 50 mg/kg), 15 min, individual rats NO. 1-5)?
**A.** The Plasma concentrations was 0.3981 µg/mL and 0.2105 µg/mL and 0.1113 µg/mL and 0.0464 µg/mL and 0.3803 µg/mL.

**Q.** And the Plasma concentrations (IQ group (oral IQ 50 mg/kg), 30 min, individual rats NO. 1-5)?
**A.** The Plasma concentrations was 0.3658 µg/mL and 0.4136 µg/mL and 0.1507 µg/mL and 0.3866 µg/mL and 0.3886 µg/mL.

**Q.** What about the Plasma concentrations (IQ group (oral IQ 50 mg/kg), 60 min, individual rats NO. 1-5) of the same compound?
**A.** Its Plasma concentrations is 0.1335 µg/mL and 0.1563 µg/mL and 0.1140 µg/mL and 0.0299 µg/mL and 0.2027 µg/mL.

**Q.** And the Plasma concentrations (IQ group (oral IQ 50 mg/kg), 90 min, individual rats NO. 1-5)?
**A.** The Plasma concentrations was 0.0372 µg/mL and 0.1114 µg/mL and 0.0310 µg/mL and 0.0260 µg/mL and 0.1543 µg/mL.

**Q.** And the Plasma concentrations (IQ group (oral IQ 50 mg/kg), 120 min, individual rats NO. 1-5)?
**A.** Its Plasma concentrations is 0.0000 μg/mL (3×) and 0.0534 μg/mL and 0.0884 μg/mL.

**Q.** What about the Plasma concentrations (IQ group (oral IQ 50 mg/kg), 180 min, individual rats NO. 1-5) of the same compound?
**A.** The Plasma concentrations was 0.0000 µg/mL.

**Q.** What about the Plasma concentrations (IQ group (oral IQ 50 mg/kg), 240 min, individual rats NO. 1-5) of the same compound?
**A.** The Plasma concentrations was 0.0000 µg/mL.

**Q.** And the Plasma concentrations (IQ group (oral IQ 50 mg/kg), 360 min, individual rats NO. 1-5)?
**A.** The Plasma concentrations was 0.0000 µg/mL.

**Q.** What about the Plasma concentrations (IQ group (oral IQ 50 mg/kg), 480 min, individual rats NO. 1-5) of the same compound?
**A.** The Plasma concentrations was 0.0000 µg/mL.

**Q.** And the Plasma concentrations (IQ group (oral IQ 50 mg/kg), 1440 min, individual rats NO. 1-5)?
**A.** The Plasma concentrations was 0.0000 µg/mL.

**Q.** And the “AUC(0-t)” value [1]?
**A.** Its value is 307.8 ng·h/mL and 355.8 ng·h/mL and 150.6 ng·h/mL and 180.27 ng·h/mL and 439.42 ng·h/mL.

**Q.** And the CLz/F [1]?
**A.** Its CLz/F is 153.9 L/h/kg and 126.2 L/h/kg and 287.5 L/h/kg and 214.3 L/h/kg and 91.68 L/h/kg.

**Q.** What about the Cmax [1] of the same compound?
**A.** The Cmax was 0.3981 µg/mL and 0.4136 µg/mL and 0.1507 µg/mL and 0.3866 µg/mL and 0.3886 µg/mL.

**Q.** What about the “MRT(0-t)” value [1] of the same compound?
**A.** The value was 46.827 min and 41.112 min and 33.266 min and 48.488 min.

**Q.** And the Tmax [1]?
**A.** The Tmax was 30 min.

**Q.** And the t1/2z [1]?
**A.** The t1/2z was 18.181 min and 30.631 min and 26.313 min and 87.922 min and 49.884 min.

**Q.** And the “Detection in rat plasma” value (IQ group: oral IQ 50 mg/kg)?
**A.** The value was “could be detected in rat plasma”.

**Q.** And the “Time until which the AUC could be accessed” value (IQ group: oral IQ 50 mg/kg)?
**A.** Its value is 90 to 120 min.

**Q.** And the CL (IQ group: oral IQ 50 mg/kg, rat plasma, mean ± SD, n = 5)?
**A.** Its CL is 175 ± 77.4 L/h/kg.

**Q.** And the concentration at 180 min (male, Sprague-Dawley, rat, plasma, oral, 50 mg/kg, IQ group (oral IQ 50 mg/kg), 180 min, individual rats NO. 1-5, read-out: Plasma concentrations)?
**A.** The concentration at 180 min was 0 µg/mL.

**Q.** What about the concentration at 240 min (male, Sprague-Dawley, rat, plasma, oral, 50 mg/kg, IQ group (oral IQ 50 mg/kg), 240 min, individual rats NO. 1-5, read-out: Plasma concentrations) of the same compound?
**A.** The concentration at 240 min was 0 µg/mL.

**Q.** And the concentration at 360 min (male, Sprague-Dawley, rat, plasma, oral, 50 mg/kg, IQ group (oral IQ 50 mg/kg), 360 min, individual rats NO. 1-5, read-out: Plasma concentrations)?
**A.** The concentration at 360 min was 0 µg/mL.

**Q.** And the concentration at 480 min (male, Sprague-Dawley, rat, plasma, oral, 50 mg/kg, IQ group (oral IQ 50 mg/kg), 480 min, individual rats NO. 1-5, read-out: Plasma concentrations)?
**A.** The concentration at 480 min was 0 µg/mL.

**Q.** And the concentration at 1440 min (male, Sprague-Dawley, rat, plasma, oral, 50 mg/kg, IQ group (oral IQ 50 mg/kg), 1440 min, individual rats NO. 1-5, read-out: Plasma concentrations)?
**A.** The concentration at 1440 min was 0 µg/mL.

**Q.** What about the MRT last (male, Sprague-Dawley, rat, plasma, po, 50 mg/kg, IQ group (oral IQ 50 mg/kg), rat plasma, labelled substance = analyte, individual rats No1-No5, read-out: MRT(0-t) (converted)) of the same compound?
**A.** Its MRT last is 33.3 min.

**Q.** What about the Tmax (male, Sprague-Dawley, rat, plasma, po, 50 mg/kg, IQ group (oral IQ 50 mg/kg), rat plasma, labelled substance = analyte, individual rats No1-No5, read-out: Tmax (converted)) of the same compound?
**A.** The Tmax was 15 min.

**Q.** What about the AUC(0-t) (male, Sprague-Dawley, rat, plasma, po, 50 mg/kg, IQ group (oral IQ 50 mg/kg), rat plasma, labelled substance = analyte, mean of 5 rats, read-out: AUC(0-t) (converted)) of the same compound?
**A.** The AUC(0-t) was 287 ng·h/mL.

**Q.** And the CL/F (male, Sprague-Dawley, rat, plasma, po, 50 mg/kg, IQ group (oral IQ 50 mg/kg), rat plasma, labelled substance = analyte, mean of 5 rats, read-out: CLz/F)?
**A.** The CL/F was 175 L/h/kg.

**Q.** What about the Cmax (male, Sprague-Dawley, rat, plasma, po, 50 mg/kg, IQ group (oral IQ 50 mg/kg), rat plasma, labelled substance = analyte, mean of 5 rats, read-out: Cmax) of the same compound?
**A.** Its Cmax is 0.348 µg/mL.

**Q.** And the MRT last (male, Sprague-Dawley, rat, plasma, po, 50 mg/kg, IQ group (oral IQ 50 mg/kg), rat plasma, labelled substance = analyte, mean of 5 rats, read-out: MRT(0-t) (converted))?
**A.** Its MRT last is 40.6 min.

**Q.** What about the Tmax (male, Sprague-Dawley, rat, plasma, po, 50 mg/kg, IQ group (oral IQ 50 mg/kg), rat plasma, labelled substance = analyte, mean of 5 rats, read-out: Tmax (converted)) of the same compound?
**A.** Its Tmax is 27 min.

**Q.** What about the half-life (male, Sprague-Dawley, rat, plasma, po, 50 mg/kg, IQ group (oral IQ 50 mg/kg), rat plasma, labelled substance = analyte, mean of 5 rats) of the same compound?
**A.** The half-life was 42.6 min.

**Q.** And the AUC(0-t) (male, Sprague-Dawley, rat, plasma, po, 50 mg/kg, IQ group: oral IQ 50 mg/kg, rat plasma, mean ± SD, n = 5, read-out: AUC0−t (converted))?
**A.** Its AUC(0-t) is 287 ng·h/mL.

**Q.** And the Cmax (male, Sprague-Dawley, rat, plasma, po, 50 mg/kg, IQ group: oral IQ 50 mg/kg, rat plasma, mean ± SD, n = 5, read-out: Cmax)?
**A.** Its Cmax is 0.35 ± 0.11 µg/mL.

**Q.** What about the MRT last (male, Sprague-Dawley, rat, plasma, po, 50 mg/kg, IQ group: oral IQ 50 mg/kg, rat plasma, mean ± SD, n = 5, read-out: MRT0−t (converted)) of the same compound?
**A.** The MRT last was 40.6 min.

**Q.** And the Tmax (male, Sprague-Dawley, rat, plasma, po, 50 mg/kg, IQ group: oral IQ 50 mg/kg, rat plasma, mean ± SD, n = 5, read-out: Tmax (converted))?
**A.** The Tmax was 27 min.

**Q.** And the half-life (male, Sprague-Dawley, rat, plasma, po, 50 mg/kg, IQ group: oral IQ 50 mg/kg, rat plasma, mean ± SD, n = 5)?
**A.** Its half-life is 42.6 ± 27.9 min.
